In ChEMBL document CHEMBL1142066, “In vitro effects of antimicrobial agents on planktonic and biofilm forms of Staphylococcus lugdunensis clinical isolates” (2007):
Converted amounts (≈) assume the structure as drawn. The source made the active and inactive calls. The calls are words filed in the database; no cut-off is given here.

How the values were obtained:
[1] = system: Staphylococcus lugdunensis; assay: Antimicrobial susceptibility of Staphylococcus lugdunensis IDRL5256 biofilms after 24 hrs assessed as bacterial regrowth; type: functional
[2] = system: Staphylococcus lugdunensis; assay: Antimicrobial susceptibility of Staphylococcus lugdunensis IDRL5254 biofilms after 24 hrs assessed as bacterial regrowth; type: functional
[3] = system: Staphylococcus lugdunensis; assay: Increase in biofilm formation of Staphylococcus lugdunensis assessed as percent biofilm forming isolates; type: functional
[4] = system: Staphylococcus lugdunensis; assay: Antimicrobial susceptibility of Staphylococcus lugdunensis IDRL2492 biofilms after 24 hrs assessed as bacterial regrowth; type: functional
[5] = system: Staphylococcus lugdunensis; assay: Antimicrobial susceptibility of Staphylococcus lugdunensis IDRL856 biofilms after 24 hrs assessed as bacterial regrowth; type: functional
[6] = system: Staphylococcus lugdunensis; assay: Antimicrobial susceptibility of Staphylococcus lugdunensis isolates by broth microdilution method; type: functional; settings: for MIC50 / MIC90: Staphylococcus lugdunensis
[7] = system: Staphylococcus lugdunensis; assay: Antimicrobial susceptibility of Staphylococcus lugdunensis IDRL2639 biofilms after 24 hrs assessed as bacterial regrowth; type: functional
[8] = system: Staphylococcus lugdunensis; assay: Antimicrobial susceptibility of Staphylococcus lugdunensis IDRL2414 biofilms after 24 hrs assessed as bacterial regrowth; type: functional
[9] = system: Staphylococcus lugdunensis; assay: Effect on biofilm formation of Staphylococcus lugdunensis assessed as percent non-biofilm forming isolates; type: functional; set-up: concentration or dose not given beside the values
[10] = system: Staphylococcus lugdunensis; assay: Antimicrobial susceptibility of Staphylococcus lugdunensis IDRL2394 biofilms after 24 hrs assessed as bacterial regrowth; type: functional
[11] = system: Staphylococcus lugdunensis; assay: Antimicrobial susceptibility of Staphylococcus lugdunensis IDRL2664 biofilms after 24 hrs assessed as bacterial regrowth; type: functional
[12] = system: Staphylococcus lugdunensis; assay: Antimicrobial susceptibility of Staphylococcus lugdunensis IDRL2554 biofilms after 24 hrs assessed as bacterial regrowth; type: functional
[13] = system: Staphylococcus lugdunensis; assay: Antimicrobial susceptibility of Staphylococcus lugdunensis IDRL2588 biofilms after 24 hrs assessed as bacterial regrowth; type: functional
[14] = system: Staphylococcus lugdunensis; assay: Antimicrobial susceptibility of Staphylococcus lugdunensis IDRL2526 biofilms after 24 hrs assessed as bacterial regrowth; type: functional
[15] = system: Staphylococcus lugdunensis; assay: Antimicrobial susceptibility of Staphylococcus lugdunensis IDRL2622 biofilms after 24 hrs assessed as bacterial regrowth; type: functional
[16] = system: Staphylococcus lugdunensis; assay: Antimicrobial susceptibility of Staphylococcus lugdunensis IDRL2640 biofilms after 24 hrs assessed as bacterial regrowth; type: functional
[17] = system: Staphylococcus lugdunensis; assay: Antimicrobial susceptibility of Staphylococcus lugdunensis IDRL5258 biofilms after 24 hrs assessed as bacterial regrowth; type: functional
[18] = system: Staphylococcus lugdunensis; assay: Antimicrobial susceptibility of Staphylococcus lugdunensis IDRL5204 biofilms after 24 hrs assessed as bacterial regrowth; type: functional
[19] = system: Staphylococcus lugdunensis; assay: Decrease in biofilm formation of Staphylococcus lugdunensis assessed as percent biofilm forming isolates; type: functional; set-up: concentration or dose not given beside the values
[20] = system: Staphylococcus epidermidis; assay: Increase in biofilm formation of Staphylococcus epidermidis RP62A at 0.25 times MIC; type: functional, organism-based
Staphylococcus aureus [21] = assay: Increase in biofilm formation of Staphylococcus aureus SA113 at 0.25 times MIC; type: functional, organism-based
Staphylococcus aureus [22] = assay: Decrease in biofilm formation of Staphylococcus aureus SA113; type: functional, organism-based
[23] = system: Staphylococcus epidermidis; assay: Decrease in biofilm formation of Staphylococcus epidermidis RP62A; type: functional, organism-based

Row | SMILES | BBC [1] | BBC [2] | Activity [3] | BBC [4] | BBC [5] | MBC50 [6] | MBC90 [6] | MIC50 [6] | MIC90 [6] | BBC [7] | BBC [8] | Activity [9] | BBC [10] | BBC [11] | BBC [12] | BBC [13] | BBC [14] | BBC [15] | BBC [16] | BBC [17] | further results
1 | CCCCCCCCCC(=O)N[C@@H](Cc1c[nH]c2ccccc12)C(=O)N[C@H](CC(N)=O)C(=O)N[C@@H](CC(=O)O)C(=O)N[C@@H]1C(=O)NCC(=O)N[C@@H](CCCN)C(=O)N[C@@H](CC(=O)O)C(=O)N[C@H](C)C(=O)N[C@@H](CC(=O)O)C(=O)NCC(=O)N[C@H](CO)C(=O)N[C@@H]([C@H](C)CC(=O)O)C(=O)N[C@@H](CC(=O)c2ccccc2N)C(=O)O[C@@H]1C | 64 µg/mL | 128 µg/mL | 13% | 8 µg/mL | 16 µg/mL | 0.5 µg/mL (≈ 0.309 µM) | 1 µg/mL (≈ 0.617 µM) | 0.125 µg/mL (≈ 0.0771 µM) | 0.25 µg/mL (≈ 0.154 µM) | 32 µg/mL | >128 µg/mL | 87% | 64 µg/mL | 32 µg/mL | 4 µg/mL | 128 µg/mL | 8 µg/mL | 1 µg/mL | >128 µg/mL | 16 µg/mL | BBC [18]: 8 µg/mL; Activity [19]: 0%
2 | Cc1nnc(SCC2=C(C(=O)O)N3C(=O)[C@@H](NC(=O)Cn4cnnn4)[C@H]3SC2)s1 [CEFAZOLIN] | >128 µg/mL | >128 µg/mL | 13% | >128 µg/mL | >128 µg/mL | 0.5 µg/mL (≈ 1.1 µM) | 1 µg/mL (≈ 2.2 µM) | 0.25 µg/mL (≈ 0.55 µM) | 0.5 µg/mL (≈ 1.1 µM) | 4 µg/mL | >128 µg/mL | 80% | >128 µg/mL | 8 µg/mL | >128 µg/mL | >128 µg/mL | >128 µg/mL | 2 µg/mL | >128 µg/mL | >128 µg/mL | BBC [18]: 1 µg/mL; Activity [19]: 7%
3 | CC(=O)NC[C@H]1CN(c2ccc(N3CCOCC3)c(F)c2)C(=O)O1 [LINEZOLID] | >128 µg/mL | >128 µg/mL | 0% | >128 µg/mL | >128 µg/mL | >128 µg/mL | >128 µg/mL | 1 µg/mL (≈ 2.96 µM) | 1 µg/mL (≈ 2.96 µM) | >128 µg/mL | >128 µg/mL | 20% | >128 µg/mL | >128 µg/mL | >128 µg/mL | >128 µg/mL | >128 µg/mL | >128 µg/mL | >128 µg/mL | >128 µg/mL | Activity [20]: Active; Activity (Staphylococcus aureus [21]): Active; BBC [18]: 4 µg/mL; Activity [19]: 80%
4 | COc1c(N2C[C@@H]3CCCN[C@@H]3C2)c(F)cc2c(=O)c(C(=O)O)cn(C3CC3)c12 [MOXIFLOXACIN] | 1 µg/mL | 0.5 µg/mL | 27% | 0.25 µg/mL | 0.25 µg/mL | 0.125 µg/mL (≈ 0.311 µM) | 0.25 µg/mL (≈ 0.623 µM) | 0.125 µg/mL (≈ 0.311 µM) | 0.25 µg/mL (≈ 0.623 µM) | 0.25 µg/mL | 0.5 µg/mL | 33% | 2 µg/mL | <=0.125 ug ml-1 | <=0.125 ug ml-1 | 0.5 µg/mL | 0.5 µg/mL | 2 µg/mL | 2 µg/mL | <=0.125 ug ml-1 | BBC [18]: 0.5 µg/mL; Activity [19]: 40%
5 | CCOc1ccc2ccccc2c1C(=O)N[C@@H]1C(=O)N2[C@@H]1SC(C)(C)[C@@H]2C(=O)O [NAFCILLIN] | >128 µg/mL | >128 µg/mL | 93% | 8 µg/mL | 16 µg/mL | 0.5 µg/mL (≈ 1.21 µM) | 2 µg/mL (≈ 4.83 µM) | 0.5 µg/mL (≈ 1.21 µM) | 0.5 µg/mL (≈ 1.21 µM) | 1 µg/mL | >128 µg/mL | 7% | >128 µg/mL | 2 µg/mL | 2 µg/mL | 8 µg/mL | 4 µg/mL | 8 µg/mL | >128 µg/mL | 0.5 µg/mL | Activity (Staphylococcus aureus [22]): Active; Activity [23]: Active; BBC [18]: 0.5 µg/mL; Activity [19]: 0%
